Series [1] deals with LbHsp90 (Leishmania braziliensis, UniProt A4HL70). Briefly: LbHsp90 ATPase kinetics (NADH-coupled enzymatic cascade). The class given is biochemical. To be noted: for LbHsp90 Inhibition (%): compound 50 μM, 3.5 μM LbHsp90, 1 mM ATP; for inhibition at 50 µM: read-out: LbHsp90 Inhibition (%), compound 50 μM, 3.5 μM LbHsp90, 1 mM ATP. As to the method:
The reaction was initiated by the addition of ATP (1 mM) and absorbance changes at 346 nm were monitored for 30 min at 30 °C.
Native LbHsp90 kinetics was measured as described but in the absence of DMSO. Two control experiments were run as follows: • (1) Efficiency of the enzymatic cascade by the used compounds: HEPES buffer (20 mM, pH 7.5) containing KCl (100 mM), MgCl2 (1 mM), ADP (1 mM), NADH (0.18 mM), L-lactate dehydrogenase (4 U mL^−1), phosphoenolpyruvate (1 mM), pyruvate kinase (2.5 U mL^−1); • (2) Interference of the tested compound(s) with the enzymatic cascade: HEPES buffer (20 mM, pH 7.5) containing KCl (100 mM), MgCl2 (1 mM), ADP (1 mM), NADH (0.18 mM), L-lactate dehydrogenase (4 U mL^−1), phosphoenolpyruvate (1 mM), pyruvate kinase (2.5 U mL^−1) and 50 μM compound.
Accordingly, an in vitro assay developed for the evaluation of non-competitive allosteric modulators, which exploits ATPase kinetics data, was used. Briefly, the decrease in absorbance deriving from the continuous oxidation of NADH to NAD^+ produced by a multi-enzymatic cascade triggered by LbHp90-catalyzed ATP hydrolysis is followed spectrophotometrically over the course of 15 min (for details see Appendix B). All the experiments were normalized using the native ATPase activity of LbHsp90 measured in the presence of DMSO, the co-solvent selected for compounds solubilization.
Figure A1 Enzymatic cascade reactions to spectroscopically evaluate L. Hsp90 ATPase kinetics. The ADP produced by ATP hydrolysis during the chaperone cycle reacts with PEP (phosphoenolpyruvate) to form pyruvate in a reaction catalyzed by the enzyme pyruvate kinase (PK), whereby ATP is regenerated. Pyruvate then continues the cascade process and is reduced to lactic acid by action of lactate dehydrogenase (LDH), whereby NADH is oxidized to NAD^+.
LbHsp90 inhibition (%) = (1 − k/knative) * 100 k = ΔAbs/min = extrapolated apparent kinetic constant (Abs/min)

Series [2] concerns HMEC-1. Briefly: Cytotoxicity on HMEC-1 (MTT). The series is classed as cell-based, human. To be noted: Homo sapiens, read-out: Healthy Cell Lines IC50, HMEC-1. As to the method: (§1) Cytotoxicity was evaluated on human microvascular endothelial cells (HMEC-1, provided by the Centers for Disease Control, Atlanta, GA, USA), on immortalized mouse C57Bl/6 bone marrow derived macrophages (BMDM) from wild type lineage (generated in the laboratories of Drs. Douglas Golenbock and Kate Fitzgerald, University of Massachusetts, Worcester, MA, USA) and on a human acute monocytic leukaemia cell line (THP-1).
(§2) HMEC-1 were maintained in MCDB 131 medium (Invitrogen, Milan, Italy) supplemented with 10% fetal calf serum (HyClone), 10 ng/mL of epidermal growth factor, 1 μg/mL of hydrocortisone, 2 mM glutamine and 20 mM HEPES buffer, at 37 °C in 5% CO2. BMDM were maintained in DMEM (Euroclone) medium supplemented with 10% fetal bovine serum (HyClone, Celbio, Milan, Italy), 2 mM glutamine, and 25 mM of HEPES buffer solution (Euroclone). THP-1 were maintained in RPMI supplemented with 10% heat-inactivated FCS, 50 µM 2-mercaptoethanol, 10 µM sodium pyruvate, 20 mM HEPES, and 2 mM glutamine. In order to achieve differentiation into macrophages, cells were treated with 10 ng/mL phorbol myristate acetate (PMA) for 72 h.
(§3) For the cytotoxicity assay, cells were seeded in 96 well flat bottom tissue culture clusters (Costar, New York, NY, USA) at the following concentrations: HMEC 10^5 cell/mL, BMDM at 10^6 cell/mL, THP1 at 5 × 10^5 cell/mL. After 24 h, cells were treated with serial dilutions of test compounds in a final volume of 200 µL/well. Cell proliferation was evaluated after 72 h using the MTT assay.
(§4) The absorbances were measured with a microplate spectrophotometer (Synergy 4-Biotek) at a test wavelength of 550 nm and a reference wavelength of 650 nm. The results are expressed as IC50 as the concentration inhibiting 50% of cell growth. Each IC50 value is the mean and standard deviation of at least three separate experiments performed in duplicate.

Series [3] concerns THP-1. Briefly: Cytotoxicity on THP-1 (MTT). The note with it: Homo sapiens, THP-1; PMA-differentiated, 72 h, MTT; read-out: Healthy Cell Lines IC50, THP-1. The series is classed as cell-based, human. As to the method:
as §1, §2, §3, §4

Series [4] relates to L. infantum promastigotes. Briefly: Antileishmanial activity on L. infantum promastigotes (MTT). The series is classed as cell-based.
Series [5] has as its system L. tropica promastigotes. Description: Antileishmanial activity on L. tropica promastigotes (MTT). The series is classed as cell-based. The method, then:
Promastigote stage of L. infantum (MHOM/TN/80/IPT1, kindly provided by Dr. M. Gramiccia and Dr. T. Di Muccio, ISS, Roma) and L. tropica (MHOM/SY/2012/ISS3130) were cultured in RPMI 1640 medium (EuroClone) supplemented with 15% heat-inactivated fetal calf serum (EuroClone, Milan, Italy), 20 mM HEPES, and 2 mM L-glutamine at 23 °C. The MTT (3-[4.5-dimethylthiazol-2-yl]-2.5-diphenyltetrazolium bromide) method was used to estimate the 50% inhibitory concentration (IC50), with some modifications. Compounds were dissolved in DMSO and then diluted with medium to achieve the required concentrations. Test compounds were placed in 96 wells round bottom microplates and seven serial dilutions made. Amphotericin B was used as the reference antileishmanial drug. Parasites were diluted in complete medium to 5 × 10^6 parasites/mL and 100 μL of the suspension was seeded into the plates and incubated at 23 °C for 72 h. Then 20 μL of MTT solution (5 mg/mL) was added into each well, after 3 h the plates were centrifuged, the supernatants discarded and the resulting pellets dissolved in 100 μL of lysing buffer consisting of 20% (w/v) of a solution of SDS (Sigma), 40% of N,N-dimethylformamide (Merck) in H2O. The absorbance of the obtained solutions was measured at a wavelength of 550 nm with a reference at 650 nm with a microplate spectrophotometer (Synergy 4-Biotek, Milan, Italy) and analyzed with the Gen5® software for data processing.
The results are expressed as IC50, the dose of compound that is necessary to inhibit cell growth by 50%; each IC50 value is the mean ± standard deviation of at least three separate experiments performed in duplicate.

For series [6], the system named is L. infantum amastigotes. Description: Antileishmanial activity on intramacrophage amastigotes of L. infantum. The series is classed as cell-based, Leishmania infantum. To be noted: Leishmania infantum; infected THP-1 macrophages, 72 h. The method, then:
Cell monolayers were then washed and incubated in the presence of test compounds for 72 h. Slides were fixed with methanol and stained with Giemsa. The percentage of infected macrophages in treated and non-treated cells was determined by light microscopy.

Setting [7] is: 72 h, 23 °C, MTT; read-out: Leishmania Promastigotes IC50, L. infantum.
The mark [8] stands for this setting: Leishmania infantum, 72 h, 23 °C, MTT, read-out: Leishmania Promastigotes IC50, L. infantum.
The mark [9] stands for this setting: 72 h, 23 °C, MTT; read-out: Leishmania Promastigotes IC50, L. tropica.
[10] abbreviates: Leishmania tropica, 72 h, 23 °C, MTT, read-out: Leishmania Promastigotes IC50, L. tropica.

Like-named read-outs stand apart in the source and are kept apart here.

Chain of LbHsp90 (A4HL70 entry or part of it): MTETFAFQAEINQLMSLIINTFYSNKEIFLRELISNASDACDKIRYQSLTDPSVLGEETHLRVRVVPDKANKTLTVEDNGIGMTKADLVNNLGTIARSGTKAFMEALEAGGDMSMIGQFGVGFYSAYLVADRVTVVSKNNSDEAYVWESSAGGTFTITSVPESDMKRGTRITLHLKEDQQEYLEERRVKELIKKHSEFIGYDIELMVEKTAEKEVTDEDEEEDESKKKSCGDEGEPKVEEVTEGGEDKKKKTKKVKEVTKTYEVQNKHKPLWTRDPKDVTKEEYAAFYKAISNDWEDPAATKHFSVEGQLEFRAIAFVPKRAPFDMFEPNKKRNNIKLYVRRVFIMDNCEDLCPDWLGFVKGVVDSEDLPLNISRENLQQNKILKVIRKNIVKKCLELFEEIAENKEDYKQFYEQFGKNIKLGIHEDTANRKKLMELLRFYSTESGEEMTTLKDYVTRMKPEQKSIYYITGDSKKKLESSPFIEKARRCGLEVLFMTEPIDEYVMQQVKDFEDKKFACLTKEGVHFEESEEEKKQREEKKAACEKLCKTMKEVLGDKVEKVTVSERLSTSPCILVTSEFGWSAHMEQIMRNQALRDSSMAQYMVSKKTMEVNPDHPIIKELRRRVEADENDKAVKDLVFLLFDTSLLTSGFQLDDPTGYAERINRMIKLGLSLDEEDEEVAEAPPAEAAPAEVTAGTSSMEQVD

Regarding `CC1=C(O)C(=O)C=C2C1=CC=C1[C@@]2(C)CC[C@@]2(C)[C@@H]3C[C@](C)(C(=O)NCCN4CCCC4)CC[C@]3(C)CC[C@]12C` [compound 3, (2R,4aS,6aS,12bR,14aS,14bR)-10-hydroxy-2,4a,6a,9,12b,14a-hexamethyl-11-oxo-N-(2-(pyrrolidin-1-yl)ethyl)-1,2,3,4,4a,5,6,6a,11,12b,13,14,14a,14b-tetradecahydropicene-2-carboxamide], the melting point was 135.6 to 138 °C. Besides, in series [1], the “LbHsp90 Inhibition (%)” value stood at 97.8 ± 1.2% and the inhibition at 50 µM is 95%. Further, in series [2] (HMEC-1, 72 h, MTT), the half-inhibitory concentration (IC50) was 530 ± 170 nM. Moreover, in series [3], the IC50 was 2790 ± 440 nM. Moreover, the half-inhibitory concentration (IC50) in series [4] (setting [7]) turned out to be 60 ± 10 nM. In addition, the IC50 in series [4] (setting [8]) was below 100 nM. Also, the half-maximal inhibitory concentration (IC50) in series [5] (setting [9]) was determined as 80 ± 40 nM. Moreover, the IC50 in series [5] (setting [10]) is below 100 nM. For the same molecule, inhibition in series [6] was half-maximal at 130 ± 90 nM (IC50).
Turning to `CC1=C(O)C(=O)C=C2C1=CC=C1[C@@]2(C)CC[C@@]2(C)[C@@H]3C[C@](C)(C(=O)NCC45CCCN4CCC5)CC[C@]3(C)CC[C@]12C` [compound 5, (2R,4aS,6aS,12bR,14aS,14bR)-N-((hexahydro-1H-pyrrolizin-7a-yl)methyl)-10-hydroxy-2,4a,6a,9,12b,14a-hexamethyl-11-oxo-1,2,3,4,4a,5,6,6a,11,12b,13,14,14a,14b-tetradecahydropicene-2-carboxamide], the melting point was 250.8 to 254.7 °C. Further, in series [2] (HMEC-1, 72 h, MTT), the IC50 worked out at 120 ± 30 nM. Besides, the IC50 in series [3] was found to be 1880 ± 340 nM. In series [4] (setting [8]), the half-maximal inhibitory concentration (IC50) was determined as 120 ± 20 nM. Also, the IC50 in series [5] (setting [10]) was found to be 120 ± 50 nM. Moreover, in series [6], the IC50 was found to be 520 ± 280 nM.
`CC1=C(O)C(=O)C=C2C1=CC=C1[C@@]2(C)CC[C@@]2(C)[C@@H]3C[C@](C)(C(=O)NCCNc4ccnc5cc(Cl)ccc45)CC[C@]3(C)CC[C@]12C` [compound 6, (2R,4aS,6aS,12bR,14aS,14bR)-N-(2-((7-chloroquinolin-4-yl)amino)ethyl)-10-hydroxy-2,4a,6a,9,12b,14a-hexamethyl-11-oxo-1,2,3,4,4a,5,6,6a,11,12b,13,14,14a,14b-tetradecahydropicene-2-carboxamide] came in with a melting point of 165.7 to 167.9 °C. Also, the IC50 in series [2] (HMEC-1, 72 h, MTT) turned out to be 400 ± 30 nM. The 50% inhibitory concentration (IC50) in series [3] is 850 ± 240 nM. The IC50 in series [4] (setting [8]) amounted to 90 ± 30 nM. In series [5] (setting [10]), the IC50 is 140 ± 30 nM. The molecule further came in with an IC50 in series [6] of 660 ± 60 nM.
As to `CC1=C(O)C(=O)C=C2C1=CC=C1[C@@]2(C)CC[C@@]2(C)[C@@H]3C[C@](C)(C(=O)O)CC[C@]3(C)CC[C@]12C` [CE, celastrol], the “LbHsp90 Inhibition (%)” value in series [1] came out at 28.9 ± 5.4%. Also, the inhibition at 50 µM in series [1] turned out to be 30%. The IC50 in series [2] (HMEC-1, 72 h) amounted to 380 ± 80 nM; in series [3], 900 ± 300 nM; in series [4] (Leishmania infantum; 72 h, 23 °C, MTT; read-out: Leishmania Promastigotes IC50, L. infantum), 210 ± 70 nM; in series [5] (Leishmania tropica; 72 h, 23 °C, MTT; read-out: Leishmania Promastigotes IC50, L. tropica) it was 490 ± 170 nM.
For `CC1=C(O)C(=O)C=C2C1=CC=C1[C@@]2(C)CC[C@@]2(C)[C@@H]3C[C@](C)(C(=O)NCCN4CCCCC4)CC[C@]3(C)CC[C@]12C` [compound 1, (2R,4aS,6aS,12bR,14aS,14bR)-10-hydroxy-2,4a,6a,9,12b,14a-hexamethyl-11-oxo-N-(2-(piperidin-1-yl)ethyl)-1,2,3,4,4a,5,6,6a,11,12b,13,14,14a,14b-tetradecahydropicene-2-carboxamide], the melting point fell in the range of 137 to 138.6 °C. For the same molecule, the 50% inhibitory concentration (IC50) in series [2] (HMEC-1, 72 h, MTT) was 510 ± 80 nM. In series [3], the IC50 worked out at 2080 ± 240 nM. For the same molecule, the IC50 in series [4] (setting [8]) came to 60 ± 20 nM. The IC50 in series [5] (setting [10]) is 90 ± 30 nM. In series [6], half-maximal inhibition (IC50) required 190 ± 110 nM.
On to `CC1=C(O)C(=O)C=C2C1=CC=C1[C@@]2(C)CC[C@@]2(C)[C@@H]3C[C@](C)(C(=O)NCCSS(C)(=O)=O)CC[C@]3(C)CC[C@]12C` [compound 9, S-(2-((2R,4aS,6aS,12bR,14aS,14bR)-10-hydroxy-2,4a,6a,9,12b,14a-hexamethyl-11-oxo-1,2,3,4,4a,5,6,6a,11,12b,13,14,14a,14b-tetradecahydropicene-2-carboxamido)ethyl) methanesulfonothioate], for which the concentration for half-maximal inhibition (IC50) is 4070 ± 50 nM in series [2] (HMEC-1, 72 h, MTT); 3280 ± 900 nM in series [3]; 2310 ± 280 nM in series [4] (setting [7]); 2000 to 4000 nM in series [4] (setting [8]); 3070 ± 1360 nM in series [5] (setting [9]); 2000 to 4000 nM in series [5] (setting [10]).

What is called melting point is the temperature, or range, at which the solid turns liquid. By inhibition is commonly meant the change of the read-out against control, counted positive when it falls. Usually IC50 stands for the concentration that inhibits the measured activity by half.

(Values after PMC7824787, “Design, Synthesis and In Vitro Investigation of Novel Basic Celastrol Carboxamides as Bio-Inspired Leishmanicidal Agents Endowed with Inhibitory Activity against Leishmania Hsp90” (Biomolecules, 2021).)
